Test results taken from US10000474B2, “Histone deacetylase inhibitors and uses thereof” (MUSC FOUNDATION FOR RESEARCH DEVELOPMENT, priority 2014, dated 2018).

Tests used:
Format in all cases: biochemical
Conditions in all cases: test concentration not given; average of triplicate
[1] = target: T1, Recombinant human HDAC1 (Homo sapiens, UniProt Q13547); experiment: HDAC inhibitory assay, HDAC1 (Boc-Lys(Ac)-AMC substrate)
T1 construct: purchased BPS Biosciences
Experimental: (§1) The compounds of Examples 1-12 and 14-16 were evaluated for their ability to act as inhibitors of human HDAC. The compound of Example 13 was not tested. Recombinant human HDAC1, HDAC2, HDAC3/NcoR2, HDAC5, HDAC6, HDAC8, HDAC9, HDAC10 and HDAC11 were purchased from BPS Biosciences. Recombinant human HDAC4 and HDAC7 were purchased from Millipore. The substrate Boc-Lys(Ac)-AMC and Boc-Lys(Tfa)-AMC were purchased from Bachem. The substrate Ac-RHK(Ac)K(Ac)-AMC was purchased from Enzo Life Sciences. Due to the different specific activities of each isoform, different amount of enzyme was used in each isoform screening assay. In these assays, trichostatin A (TSA), suberanilohydroxamic acid and diphenylacetohydroxamic acid (DPAHA) were employed as positive controls. All determinations were carried out in triplicate, and reported values were the average of these determinations, which in no case varied by more than 5%.
(§2) Then 25 μl of the Boc-Lys(Ac)-AMC substrate (50 μM final concentration) was added and incubated at 37° C. for 30-60 min, and followed by adding 50 μl of developer (1 mg/ml trypsin and 1 μM TSA). The last step was reading the samples in a SpectraMax M5 plate reader (Molecular Devices) at an excitation wavelength of 360 nm and an emission wavelength of 460 nm.

[2] = target: T2, Recombinant human HDAC2 (Homo sapiens, UniProt Q92769); experiment: HDAC inhibitory assay, HDAC2 (Boc-Lys(Ac)-AMC substrate)
T2 construct: purchased BPS Biosciences
Experimental: as §1, §2

[3] = target: T3, Recombinant human HDAC3/NcoR2 (Homo sapiens, UniProt O15379); experiment: HDAC inhibitory assay, HDAC3 (Boc-Lys(Ac)-AMC substrate)
T3 construct: purchased BPS Biosciences
Experimental: as §1, §2

[4] = target: T4, Recombinant human HDAC7 (Homo sapiens, UniProt Q8WUI4); experiment: HDAC inhibitory assay, HDAC7 (Boc-Lys(Tfa)-AMC substrate)
T4 construct: purchased Millipore
T4 sequence (Q8WUI4 1-952): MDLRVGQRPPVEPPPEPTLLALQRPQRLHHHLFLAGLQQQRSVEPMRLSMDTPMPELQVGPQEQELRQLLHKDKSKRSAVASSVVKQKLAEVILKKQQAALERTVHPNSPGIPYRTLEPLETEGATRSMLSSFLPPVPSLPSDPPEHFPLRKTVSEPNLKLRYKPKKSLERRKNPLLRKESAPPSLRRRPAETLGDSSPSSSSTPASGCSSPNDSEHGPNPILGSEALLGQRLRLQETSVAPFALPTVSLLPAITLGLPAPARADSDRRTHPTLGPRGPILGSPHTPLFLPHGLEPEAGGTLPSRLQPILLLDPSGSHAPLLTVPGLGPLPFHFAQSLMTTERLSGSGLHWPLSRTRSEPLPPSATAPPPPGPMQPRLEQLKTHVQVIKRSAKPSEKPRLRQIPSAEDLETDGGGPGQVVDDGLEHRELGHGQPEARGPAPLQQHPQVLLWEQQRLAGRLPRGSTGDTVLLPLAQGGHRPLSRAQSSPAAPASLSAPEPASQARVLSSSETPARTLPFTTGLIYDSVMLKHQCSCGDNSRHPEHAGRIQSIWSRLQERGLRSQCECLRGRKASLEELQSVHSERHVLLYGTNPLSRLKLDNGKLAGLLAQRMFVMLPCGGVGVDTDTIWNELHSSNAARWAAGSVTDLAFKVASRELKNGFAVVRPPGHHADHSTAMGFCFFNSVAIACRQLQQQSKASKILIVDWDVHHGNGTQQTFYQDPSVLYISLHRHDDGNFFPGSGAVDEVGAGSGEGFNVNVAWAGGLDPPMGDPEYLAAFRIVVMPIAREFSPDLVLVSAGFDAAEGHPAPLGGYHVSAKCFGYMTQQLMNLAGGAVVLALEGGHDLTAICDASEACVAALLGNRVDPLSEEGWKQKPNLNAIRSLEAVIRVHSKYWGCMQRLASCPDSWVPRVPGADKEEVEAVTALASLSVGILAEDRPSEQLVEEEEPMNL
Experimental: as §1
(§3) For evaluating the inhibition of class IIa HDACs (HDAC4, HDAC5, HDAC7 and HDAC9) and class IV HDAC (HDAC11), 10 μl of test samples were first incubated with 1 ng HDAC4 (specific activity=15400 pmol/min/μg), 5 ng HDAC5 (specific activity=2521 pmol/min/μg), 1 ng HDAC7 (specific activity=26340 pmol/min/μg), 5 ng HDAC9 (specific activity=3000 pmol/min/μg), and 500 ng HDAC11 (specific activity=1.8 pmol/min/μg) respectively. Then 25 μl of the Boc-Lys(Tfa)-AMC substrate (50 μM final concentration) was added and incubated at 37° C. for 30-60 min, and followed by adding 50 μl of developer. The last step was to read the samples in a SpectraMax M5 plate reader (Molecular Devices) at an excitation wavelength of 360 nm and an emission wavelength of 460 nm.

[5] = target: T5, Recombinant human HDAC9 (Homo sapiens, UniProt Q9UKV0); experiment: HDAC inhibitory assay, HDAC9 (Boc-Lys(Tfa)-AMC substrate)
T5 construct: purchased BPS Biosciences
Experimental: as §1, §3

[6] = target: T6, Recombinant human HDAC11 (Homo sapiens, UniProt Q96DB2); experiment: HDAC inhibitory assay, HDAC11 (Boc-Lys(Tfa)-AMC substrate)
T6 construct: purchased BPS Biosciences
T6 sequence (Q96DB2 1-347): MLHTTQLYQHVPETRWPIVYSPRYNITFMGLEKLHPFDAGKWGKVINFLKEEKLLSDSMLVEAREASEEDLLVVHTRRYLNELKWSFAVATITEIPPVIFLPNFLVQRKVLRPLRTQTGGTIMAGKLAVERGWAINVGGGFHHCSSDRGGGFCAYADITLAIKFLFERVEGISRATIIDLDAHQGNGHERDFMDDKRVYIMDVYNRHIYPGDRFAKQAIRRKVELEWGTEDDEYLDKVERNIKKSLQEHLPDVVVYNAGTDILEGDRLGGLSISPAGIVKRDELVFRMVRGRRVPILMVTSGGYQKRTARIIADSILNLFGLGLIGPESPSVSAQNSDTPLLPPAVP
Experimental: as §1, §3

T5 sequence (Q9UKV0 whole entry): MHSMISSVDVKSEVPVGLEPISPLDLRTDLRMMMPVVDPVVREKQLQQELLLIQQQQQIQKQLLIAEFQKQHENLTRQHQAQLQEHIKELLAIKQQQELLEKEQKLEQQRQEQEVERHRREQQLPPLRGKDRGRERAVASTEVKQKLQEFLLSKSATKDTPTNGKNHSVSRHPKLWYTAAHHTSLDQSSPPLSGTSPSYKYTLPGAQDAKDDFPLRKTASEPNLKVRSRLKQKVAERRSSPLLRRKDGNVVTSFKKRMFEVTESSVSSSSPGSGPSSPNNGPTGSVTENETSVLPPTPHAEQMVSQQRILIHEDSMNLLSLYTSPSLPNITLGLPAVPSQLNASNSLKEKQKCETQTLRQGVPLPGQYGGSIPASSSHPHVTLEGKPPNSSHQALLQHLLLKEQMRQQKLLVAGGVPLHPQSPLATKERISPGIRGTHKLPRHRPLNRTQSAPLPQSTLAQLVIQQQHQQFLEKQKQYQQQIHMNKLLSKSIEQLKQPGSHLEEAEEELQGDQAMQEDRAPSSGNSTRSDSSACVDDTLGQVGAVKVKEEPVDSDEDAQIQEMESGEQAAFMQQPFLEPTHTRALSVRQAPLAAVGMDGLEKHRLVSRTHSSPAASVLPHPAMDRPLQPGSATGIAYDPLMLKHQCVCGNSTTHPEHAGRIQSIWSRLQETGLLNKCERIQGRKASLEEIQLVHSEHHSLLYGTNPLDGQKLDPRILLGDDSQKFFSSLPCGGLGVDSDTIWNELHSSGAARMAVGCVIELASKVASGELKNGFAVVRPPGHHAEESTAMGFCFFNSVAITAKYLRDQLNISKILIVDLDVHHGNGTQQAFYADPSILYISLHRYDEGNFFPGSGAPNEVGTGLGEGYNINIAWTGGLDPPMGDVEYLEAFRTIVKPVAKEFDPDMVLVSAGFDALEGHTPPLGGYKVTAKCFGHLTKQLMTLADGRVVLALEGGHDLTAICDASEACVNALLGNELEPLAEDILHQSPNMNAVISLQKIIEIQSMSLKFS
T1 sequence (Q13547 whole entry): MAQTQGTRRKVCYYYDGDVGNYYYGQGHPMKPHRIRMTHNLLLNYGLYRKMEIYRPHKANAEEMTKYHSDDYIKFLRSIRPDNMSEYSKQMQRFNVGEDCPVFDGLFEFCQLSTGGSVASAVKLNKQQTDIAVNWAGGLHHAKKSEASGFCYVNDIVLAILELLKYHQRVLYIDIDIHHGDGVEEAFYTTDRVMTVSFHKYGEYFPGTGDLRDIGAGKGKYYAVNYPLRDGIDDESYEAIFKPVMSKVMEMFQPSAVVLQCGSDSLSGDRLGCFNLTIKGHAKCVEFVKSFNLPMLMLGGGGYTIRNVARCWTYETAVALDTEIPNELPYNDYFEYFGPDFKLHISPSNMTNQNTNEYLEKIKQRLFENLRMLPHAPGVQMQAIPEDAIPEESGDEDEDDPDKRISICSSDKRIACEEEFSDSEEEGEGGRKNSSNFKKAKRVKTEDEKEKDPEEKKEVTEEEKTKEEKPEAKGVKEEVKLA
T2 sequence (Q92769 whole entry): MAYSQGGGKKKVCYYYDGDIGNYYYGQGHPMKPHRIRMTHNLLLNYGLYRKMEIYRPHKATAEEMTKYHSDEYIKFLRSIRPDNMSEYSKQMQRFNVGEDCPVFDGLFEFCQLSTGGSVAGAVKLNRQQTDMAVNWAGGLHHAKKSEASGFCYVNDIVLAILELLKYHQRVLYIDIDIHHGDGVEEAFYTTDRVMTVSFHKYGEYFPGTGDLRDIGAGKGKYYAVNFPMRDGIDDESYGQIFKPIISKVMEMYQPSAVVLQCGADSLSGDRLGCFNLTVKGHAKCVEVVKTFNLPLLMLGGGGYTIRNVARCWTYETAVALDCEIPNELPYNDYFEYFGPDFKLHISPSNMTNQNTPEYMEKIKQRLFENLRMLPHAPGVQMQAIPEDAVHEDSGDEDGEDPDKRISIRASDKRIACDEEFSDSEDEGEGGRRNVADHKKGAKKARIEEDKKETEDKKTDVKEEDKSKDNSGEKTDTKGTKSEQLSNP
T3 sequence (O15379 whole entry): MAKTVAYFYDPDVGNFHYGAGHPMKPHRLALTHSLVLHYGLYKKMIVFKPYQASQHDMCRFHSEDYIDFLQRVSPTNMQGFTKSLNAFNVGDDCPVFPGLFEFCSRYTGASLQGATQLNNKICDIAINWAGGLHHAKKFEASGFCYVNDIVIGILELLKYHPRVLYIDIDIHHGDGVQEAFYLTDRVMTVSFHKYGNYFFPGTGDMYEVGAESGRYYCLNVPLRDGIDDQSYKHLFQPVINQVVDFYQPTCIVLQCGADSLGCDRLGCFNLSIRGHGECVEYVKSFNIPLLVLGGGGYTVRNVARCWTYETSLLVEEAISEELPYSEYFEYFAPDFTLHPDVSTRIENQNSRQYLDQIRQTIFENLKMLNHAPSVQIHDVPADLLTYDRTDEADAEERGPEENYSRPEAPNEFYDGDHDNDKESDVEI
T3 sequence (Q9Y618 395-489 partner limits assumed): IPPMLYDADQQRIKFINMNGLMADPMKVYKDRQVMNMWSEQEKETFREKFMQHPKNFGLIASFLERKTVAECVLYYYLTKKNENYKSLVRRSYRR

HDAC 1 inhibitory activity [1]: 25.5%
HDAC 2 inhibitory activity [2]: 32.0%
HDAC 3 inhibitory activity [3]: 36.9%
HDAC 7 inhibitory activity [4]: 0%
HDAC 9 inhibitory activity [5]: 14.2%
HDAC 11 inhibitory activity [6]: 46.6%
SMILES: O=C(CNC(=O)c1coc(-c2ccccc2O)n1)Nc1ccccc1 [Example 16, 2-(2-Hydroxyphenyl)-N-(2-oxo-2-(phenylamino)ethyl)oxazole-4-carboxamide]
